In the supplement of paper PMC10307832:

Tests used:
Assay in all cases: relative viability (nuclei count vs DMSO), 5 days (fraction); higher = more cells survive
MK-8033 + Pemetrexed = compound: Cn1cc(-c2cnc3ccc4ccc(CS(=O)(=O)NCc5ccccn5)cc4c(=O)c3c2)cn1 [MK-8033] + Nc1nc2[nH]cc(CCc3ccc(C(=O)N[C@@H](CCC(=O)O)C(=O)O)cc3)c2c(=O)[nH]1 [Pemetrexed] (partner 0.2 µM)
In short: (§1)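 Relative viability divides the nuclei count in treated wells by that in vehicle wells. Lung cancer cell lines were seeded in 1536-well plates, dosed by pin tool the next day, and fixed and stained after 5 days in one step with final 0.05% Triton X-100, 1% formaldehyde and 1 ug/ml Hoechst. Dosing was a single drug or a fixed anchor-drug dose plus five library-drug doses (not always all listed) in √10 steps, and values are medians of duplicate plates imaged at 4×.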

MK-8033 + Crizotinib = compound: Cn1cc(-c2cnc3ccc4ccc(CS(=O)(=O)NCc5ccccn5)cc4c(=O)c3c2)cn1 [MK-8033] + C[C@@H](Oc1cc(-c2cnn(C3CCNCC3)c2)cnc1N)c1c(Cl)ccc(F)c1Cl [Crizotinib] (partner 1 µM)
In short: as §1

Irinotecan + Crizotinib = compound: CCc1c2c(nc3ccc(OC(=O)N4CCC(N5CCCCC5)CC4)cc13)-c1cc3c(c(=O)n1C2)COC(=O)[C@]3(O)CC [Irinotecan] + C[C@@H](Oc1cc(-c2cnn(C3CCNCC3)c2)cnc1N)c1c(Cl)ccc(F)c1Cl [Crizotinib] (partner 1 µM)
In short: as §1

MK-8033 + Luminespib = compound: Cn1cc(-c2cnc3ccc4ccc(CS(=O)(=O)NCc5ccccn5)cc4c(=O)c3c2)cn1 [MK-8033] + CCNC(=O)c1noc(-c2cc(C(C)C)c(O)cc2O)c1-c1ccc(CN2CCOCC2)cc1 [Luminespib] (partner 0.01 µM)
In short: as §1

| Cell Line | relative viability (MK-8033 + Pemetrexed; first compound 0.02 µM) | relative viability (MK-8033 + Pemetrexed; first compound 0.06325 µM) | relative viability (MK-8033 + Pemetrexed; first compound 0.2 µM) | relative viability (MK-8033 + Pemetrexed; first compound 0.6325 µM) | relative viability (MK-8033 + Pemetrexed; first compound 2 µM) | relative viability (MK-8033 + Crizotinib; first compound 0.02 µM) | relative viability (MK-8033 + Crizotinib; first compound 0.06325 µM) | relative viability (MK-8033 + Crizotinib; first compound 0.2 µM) | relative viability (MK-8033 + Crizotinib; first compound 0.6325 µM) | relative viability (MK-8033 + Crizotinib; first compound 2 µM) | relative viability (Irinotecan + Crizotinib; first compound 0.6325 µM) | relative viability (Irinotecan + Crizotinib; first compound 2 µM) | relative viability (Irinotecan + Crizotinib; first compound 6.325 µM) | relative viability (Irinotecan + Crizotinib; first compound 20 µM) | relative viability (MK-8033 + Luminespib; first compound 0.02 µM) | relative viability (MK-8033 + Luminespib; first compound 0.2 µM) | relative viability (MK-8033 + Luminespib; first compound 0.6325 µM) | relative viability (MK-8033 + Luminespib; first compound 2 µM) | relative viability (MK-8033 + Luminespib; first compound 0.06325 µM) |
| --- | --- | --- | --- | --- | --- | --- | --- | --- | --- | --- | --- | --- | --- | --- | --- | --- | --- | --- | --- |
| HCC-366 | 0.151 | 0.222 | 0.141 | 0.196 | 0.35 | 0.45 | 0.525 | 0.59 | 0.363 | 0.504 | 0.274 | 0.132 | 0.0524 | 0.0502 |  |  |  |  |  |
| HCC-827 | 0.232 |  | 0.257 | 0.267 | 0.243 | 0.925 |  | 0.955 | 0.874 | 0.885 | 0.487 | 0.287 | 0.282 | 0.191 | 0.43 | 0.591 | 0.59 | 1.07 |  |
| HOP-62 | 0.358 | 0.415 | 0.326 | 0.3 | 0.32 | 0.857 | 0.899 | 0.808 | 0.894 | 0.878 | 0.211 | 0.108 | 0.136 | 0.159 | 0.938 | 0.814 | 0.941 | 0.86 | 0.794 |
| IA-LM |  |  |  |  |  | 0.739 | 0.667 | 0.948 | 0.667 | 0.899 | 0.774 | 0.375 | 0.195 | 0.103 |  |  |  |  |  |
| LC-2-ad | 0.298 | 0.273 | 0.264 | 0.268 | 0.276 | 0.423 | 0.347 | 0.393 | 0.447 | 0.445 | 0.359 | 0.314 | 0.258 | 0.186 | 1.04 |  | 1.08 | 0.878 | 0.97 |
| LCLC-97TM1 | 0.165 | 0.134 |  | 0.201 | 0.173 | 0.393 | 0.261 | 0.508 | 0.383 | 0.379 | 0.107 | 0.208 | 0.185 | 0.239 | 0.883 | 0.709 | 0.845 | 0.669 | 0.662 |
| LCLC-103H | 0.504 | 0.446 | 0.457 | 0.482 | 0.458 | 1.02 | 0.926 | 0.99 | 1.06 | 1.04 | 0.834 | 0.379 | 0.397 | 0.621 | 0.95 | 0.954 | 0.866 | 0.952 | 0.927 |
| LK-2 | 0.329 | 0.263 | 0.239 | 0.335 | 0.258 | 0.228 | 0.226 | 0.244 | 0.23 | 0.25 | 0.206 | 0.248 | 0.303 | 0.301 | 0.172 | 0.265 | 0.187 | 0.26 |  |
| LOU-NH91 | 0.375 | 0.38 | 0.35 | 0.366 | 0.318 | 0.724 |  | 0.715 | 0.732 | 0.75 | 0.718 | 0.658 | 0.368 | 0.36 | 0.318 | 0.349 | 0.379 | 0.326 | 0.335 |
| LU99A | 0.192 | 0.183 | 0.158 | 0.168 | 0.187 | 0.692 | 0.542 | 0.619 | 0.491 | 0.525 | 0.281 | 0.286 | 0.251 | 0.229 | 0.24 | 0.258 | 0.177 | 0.241 | 0.272 |
| LXF-289 | 0.963 | 0.874 | 0.901 | 0.883 | 0.837 | 0.738 | 0.77 | 0.777 | 0.819 | 0.773 | 0.726 | 0.549 | 0.247 | 0.208 | 0.66 | 0.591 | 0.665 | 0.643 | 0.654 |
| NCI-H23 | 0.632 | 0.517 | 0.512 |  | 0.497 | 0.446 | 0.391 | 0.487 | 0.468 | 0.552 | 0.514 | 0.463 | 0.295 | 0.348 | 0.245 |  | 0.204 | 0.198 | 0.216 |
| NCI-H322M | 0.63 | 0.59 | 0.56 | 0.599 | 0.621 | 0.855 | 0.778 | 0.835 | 0.939 | 0.954 | 0.475 | 0.405 | 0.42 | 0.316 | 0.85 | 0.78 | 0.873 | 0.842 | 0.85 |
| NCI-H522 | 1.07 | 0.967 | 0.941 | 0.891 | 1.04 |  |  |  |  |  |  |  |  |  | 0.987 | 0.955 | 1.29 | 0.946 | 1.02 |
| NCI-H727 |  |  |  |  |  | 0.811 | 0.677 | 0.754 | 0.886 | 0.792 | 0.366 | 0.556 | 0.497 | 0.447 | 0.434 | 0.291 | 0.346 | 0.516 |  |
| NCI-H1299 |  |  |  |  |  | 0.956 | 0.925 | 0.92 | 0.946 | 0.971 | 0.747 | 0.794 | 0.453 | 0.173 |  |  |  |  |  |
| NCI-H1395 | 0.921 | 0.758 | 0.693 | 0.914 | 0.815 |  |  |  |  |  |  |  |  |  | 0.764 | 0.526 | 0.735 | 0.584 | 0.559 |
| NCI-H1623 |  |  |  |  |  |  |  |  |  |  |  |  |  |  | 0.4 | 0.429 | 0.498 | 0.363 | 0.479 |
| NCI-H1648 | 0.733 |  | 0.538 | 0.81 | 0.835 |  |  |  |  |  |  |  |  |  |  |  |  |  |  |
| NCI-H1703 |  |  |  |  |  | 0.583 | 0.576 | 0.549 | 0.601 | 0.715 | 0.737 | 0.58 | 0.447 | 0.182 |  |  |  |  |  |
| NCI-H1793 | 0.682 |  | 0.725 | 0.739 | 0.729 |  |  |  |  |  |  |  |  |  | 0.174 | 0.161 | 0.209 | 0.162 | 0.217 |
| NCI-H2342 | 0.729 | 0.805 | 0.773 | 0.814 | 0.752 |  |  |  |  |  |  |  |  |  | 0.774 | 0.805 | 0.631 | 0.651 | 0.643 |
| SW 900 | 0.489 | 0.401 | 0.47 | 0.507 | 0.463 |  |  |  |  |  |  |  |  |  | 0.147 | 0.177 | 0.18 | 0.187 | 0.175 |
